Tested on: EGFR (Del19/T790M/C797S)
Assay: Cell degradation HTRF assay, H1975-clone #28 cells
Format: cell-based
Details: H1975-clone #28 (Del19/T790M/C797S) cells, 16 h treatment; for DC50: HTRF, read-out: H1975-clone#28 DTC DC50; for H1975-clone#28 DTC Dmax (%): maximum percentage of degradation
Protocol: Cell Degradation of Example 124-189
H1975-#28 and H1975-#25 cells are treated with compounds diluted in 0.2% DMSO cell culture medium on day 2, incubate for 16 h, 37° C., 5% CO2. the final concentration of compounds in all assay is start with 10 uM, 5-fold dilution, total 8 doses were included.
After 16 h treatment, add HTRF lysis buffer to each well; seal the plate and incubate 1 hour at room temperature on a plate shaker; Once the cells are lysed, 16 μL of cell lysate are transferred to a PE 384-well HTRF detection plate; 4 μL of pre-mixed HTRF antibodies are added to each well; Cover the plate with a plate sealer, spin 1000 rpm for 1 min, Incubate overnight at room temperature; Read on BMG PheraStar with HTRF protocol (337 nm-665 nm-620 nm).
The inhibition (degradation) percentage of the compound was calculated by the following equation:
Inhibition percentage of Compound=100−100×(Signal−low control)/(High control−low control), wherein signal=each test compound group.
High control=Cell group with added DMSO and without compound, indicating microplate readings without EGFR degradation;
Dmax is the maximum percentage of inhibition (degradation).
The IC50 (DC50) value of a compound can be obtained by fitting the following equation
Y=Bottom+(TOP−Bottom)/(1+((IC50/X)^hillslope))
Wherein, X and Y are known values, and IC50, Hillslope, Top and Bottom are the parameters obtained by fitting with software. Y is the inhibition percentage (calculated from the equation), X is the concentration of the compound; IC50 is the concentration of the compound when the 50% inhibition is reached. The smaller the IC50 value is, the stronger the inhibitory ability of the compound is. Vice versa, the higher the IC50 value is, the weaker the ability the inhibitory ability of the compound is; Hillslope represents the slope of the fitted curve, generally around 1*; Bottom represents the minimum value of the curve obtained by data fitting, which is generally 0%±20%; Top represents the maximum value of the curve obtained by data fitting, which is generally 100%±20%. The experimental data were fitted by calculating and analyzing with Dotmatics data analysis software. When Dmax<50%, DC50 will be automatically assigned as larger than […].

| Structure (SMILES) | DC50 [nM] | H1975-clone#28 DTC Dmax (%) |
| --- | --- | --- |
| CCc1cc(Nc2ncc(Br)c(Nc3cnc4ccccc4c3P(C)(C)=O)n2)c(OC)cc1N1CCC(N2CCN(CCc3ccc4c(c3)oc(=O)n4C3CCC(=O)NC3=O)CC2)CC1 (stereo not drawn) [Example 132, 3-(6-(2-(4-(1-(4-((5-bromo-4-((4-(dimethylphosphoryl)quinolin-3-yl)amino)pyrimidin-2-yl)amino)-2-ethyl-5-methoxyphenyl)piperidin-4-yl)piperazin-1-yl)ethyl)-2-oxobenzo[d]oxazol-3(2H)-yl)piperidine-2,6-dione] | 1 | 80 |
| CCc1cc(Nc2ncc(Br)c(Nc3cnc4ccccc4c3P(C)(C)=O)n2)c(OC)cc1N1CCC(N2CCN(CCc3c(F)ccc4c3n(C)c(=O)n4C3CCC(=O)NC3=O)CC2)CC1 (stereo not drawn) [Example 159, 3-(4-(2-(4-(1-(4-((5-bromo-4-((4-(dimethylphosphoryl)quinolin-3-yl)amino)pyrimidin-2-yl)amino)-2-ethyl-5-methoxyphenyl)piperidin-4-yl)piperazin-1-yl)ethyl)-5-fluoro-3-methyl-2-oxo-2,3-dihydro-1H-benzo[d]imidazol-1-yl)piperidine-2,6-dione] | 1.4 | 85 |
| CCc1cc(Nc2ncc(Br)c(Nc3cnc4ccccc4c3P(C)(C)=O)n2)c(OC)cc1N1CCC(N2CCN(C(=O)C3CN(c4cccc5c4C(C)(C)C(=O)N5C4CCC(=O)NC4=O)C3)CC2)CC1 (stereo not drawn) [Example 169, 3-(4-(3-(4-(1-(4-((5-bromo-4-((4-(dimethylphosphoryl)quinolin-3-yl)amino)pyrimidin-2-yl)amino)-2-ethyl-5-methoxyphenyl)piperidin-4-yl)piperazine-1-carbonyl)azetidin-1-yl)-3,3-dimethyl-2-oxoindolin-1-yl)piperidine-2,6-dione] | 4.6 | 65 |
| CCOc1cc(N2CCC(N3CCN(CCc4cc(F)c(F)c5c4oc(=O)n5C4CCC(=O)NC4=O)CC3)CC2)c(CC)cc1Nc1ncc(Br)c(Nc2cnc3ccccc3c2P(C)(C)=O)n1 (stereo not drawn) [Example 136, 3-(7-(2-(4-(1-(4-((5-bromo-4-((4-(dimethylphosphoryl)quinolin-3-yl)amino)pyrimidin-2-yl)amino)-5-ethoxy-2-ethylphenyl)piperidin-4-yl)piperazin-1-yl)ethyl)-4,5-difluoro-2-oxobenzo[d]oxazol-3(2H)-yl)piperidine-2,6-dione] | 0.6 | 81 |
| CCOc1cc(N2CCC(N3CCN(CCc4c(F)ccc5c4n(C)c(=O)n5C4CCC(=O)NC4=O)CC3)CC2)c(CC)cc1Nc1ncc(Br)c(Nc2cnc3ccccc3c2P(C)(C)=O)n1 (stereo not drawn) [Example 137, 3-(4-(2-(4-(1-(4-((5-bromo-4-((4-(dimethylphosphoryl)quinolin-3-yl)amino)pyrimidin-2-yl)amino)-5-ethoxy-2-ethylphenyl)piperidin-4-yl)piperazin-1-yl)ethyl)-5-fluoro-3-methyl-2-oxo-2,3-dihydro-1H-benzo[d]imidazol-1-yl) piperidine-2,6-dione] | 2.1 | 86 |
| CCc1cc(Nc2ncc(Br)c(Nc3cnc4c(F)cccc4c3P(C)(C)=O)n2)c(OC)cc1N1CCC(N2CCN(CCC3CCN(c4cc(F)c(C5CCC(=O)NC5=O)c(F)c4)CC3)CC2)CC1 (stereo not drawn) [Example 165, 3-(4-(4-(2-(4-(1-(4-((5-bromo-4-((4-(dimethylphosphoryl)-8-fluoroquinolin-3-yl)amino)pyrimidin-2-yl)amino)-2-ethyl-5-methoxyphenyl)piperidin-4-yl)piperazin-1-yl)ethyl)piperidin-1-yl)-2,6-difluorophenyl)piperidine-2,6-dione] | 4.2 | 84 |

Now from value to compound, other results behind:

| DC50 [nM] | Structure (SMILES) | H1975-clone#28 DTC Dmax (%) |
| --- | --- | --- |
| 1.5 | CCc1cc(Nc2ncc(Br)c(Nc3cnc4ccccc4c3P(C)(C)=O)n2)c(OC)cc1N1CCC(N2CCN([C@H]3C[C@H](c4cc(F)c(C5CCC(=O)NC5=O)c(F)c4)C3)CC2)CC1 (stereo partly drawn) [Example 184, 3-(4-((1r,3r)-3-(4-(1-(4-((5-bromo-4-((4-(dimethylphosphoryl)quinolin-3-yl)amino)pyrimidin-2-yl)amino)-2-ethyl-5-methoxyphenyl)piperidin-4-yl)piperazin-1-yl)cyclobutyl)-2,6-difluorophenyl)piperidine-2,6-dione] | 81 |
| 2.7 | CCc1cc(Nc2ncc(Br)c(Nc3cnc4c(F)c(F)ccc4c3P(C)(C)=O)n2)c(OC)cc1N1CCC(N2CCN(CCc3cc(F)c(C4CCC(=O)NC4=O)c(F)c3)CC2)CC1 (stereo not drawn) [Example 173, 3-(4-(2-(4-(1-(4-((5-bromo-4-((4-(dimethylphosphoryl)-7,8-difluoroquinolin-3-yl)amino)pyrimidin-2-yl)amino)-2-ethyl-5-methoxyphenyl)piperidin-4-yl)piperazin-1-yl)ethyl)-2,6-difluorophenyl)piperidine-2,6-dione] | 82 |
| 3.3 | CCc1cc(Nc2ncc(Br)c(Nc3cnc4ccccc4c3P(C)(C)=O)n2)c(OCC(F)(F)F)cc1N1CCC(N2CCN(CCc3cc(F)c(C4CCC(=O)NC4=O)c(F)c3)CC2)CC1 (stereo not drawn) [Example 187, 3-(4-(2-(4-(1-(4-((5-bromo-4-((4-(dimethylphosphoryl)quinolin-3-yl)amino)pyrimidin-2-yl)amino)-2-ethyl-5-(2,2,2-trifluoroethoxy)phenyl)piperidin-4-yl)piperazin-1-yl)ethyl)-2,6-difluorophenyl)piperidine-2,6-dione] | 69 |
| 2.4 | CCc1cc(Nc2ncc(Br)c(Nc3cnc4ccccc4c3P(C)(C)=O)n2)c(OC)cc1N1CCC(N2CCN(C(=O)CN(C)c3cc(F)c(C4CCC(=O)NC4=O)c(F)c3)CC2)CC1 (stereo not drawn) [Example 189, 3-(4-((2-(4-(1-(4-((5-bromo-4-((4-(dimethylphosphoryl)quinolin-3-yl)amino)pyrimidin-2-yl)amino)-2-ethyl-5-methoxyphenyl)piperidin-4-yl)piperazin-1-yl)-2-oxoethyl)(methyl)amino)-2,6-difluorophenyl)piperidine-2,6-dione] | 77 |
| 1.4 | CCc1cc(Nc2ncc(Br)c(Nc3cnc4cc(F)ccc4c3P(C)(C)=O)n2)c(OC)cc1N1CCC(N2CCN(CCc3cc(F)c(C4CCC(=O)NC4=O)c(F)c3)CC2)CC1 (stereo not drawn) [Example 172, 3-(4-(2-(4-(1-(4-((5-bromo-4-((4-(dimethylphosphoryl)-7-fluoroquinolin-3-yl)amino)pyrimidin-2-yl)amino)-2-ethyl-5-methoxyphenyl)piperidin-4-yl)piperazin-1-yl)ethyl)-2,6-difluorophenyl)piperidine-2,6-dione] | 81 |
| 4.2 | CCc1cc(Nc2ncc(Br)c(Nc3cnc4c(F)cccc4c3P(C)(C)=O)n2)c(OC)cc1N1CCC(N2CCN(CCc3cc(F)c(C4CCC(=O)NC4=O)c(F)c3)CC2)CC1 (stereo not drawn) [Example 181, 3-(4-(2-(4-(1-(4-((5-bromo-4-((4-(dimethylphosphoryl)-8-fluoroquinolin-3-yl)amino)pyrimidin-2-yl)amino)-2-ethyl-5-methoxyphenyl)piperidin-4-yl)piperazin-1-yl)ethyl)-2,6-difluorophenyl)piperidine-2,6-dione] | 82 |
